The values that follow come from patent US20110275709A1, “TELLURIUM-CONTAINING COMPOUNDS FOR AFFECTING MALE'S FERTILITY FOLLOWING CHEMOTHERAPY AND/OR RADIOTHERAPY” (BIOMAS LTD., priority 2009, published 2011).

Molecules are shown by their SMILES. “Also recorded” adds a separate entry of the source. Like-named read-outs stand apart in the source and are kept apart here. Marks after values point to notes of the source that are not given here.

The test system of data set [1] is Balb/c male mice. Put plainly: Effect of treatments on testicular weight (procarbazine-induced testicular damage). In kind it is in vivo. As to conditions: AS101 10 μg/mouse ip every other day, FIG. 3. The source says:
Inbred Balb/c male mice, aged 5-6 weeks, were used. To ensure the fertility of the mice, each mouse was placed with two young healthy females.
(§1) The administration protocols for the four groups are depicted in FIG. 1.
Weights were normalized to the weight of the mouse. Each group contained 10 mice.

The subject of data set [2] is Balb/c male mice. As to conditions: Cy 200 mg/kg ip once a week for 5 weeks; for Body weight / Epididymis weight / Epididymis weight (normalized to body weight) / Testes weight / Testes weight (normalized to body weight) / Sperm concentration: AS101 10 μg/mouse ip every other day; for Body weight / Epididymis weight / Epididymis weight (normalized to body weight) / Testes weight / Testes weight (normalized to body weight): sacrificed 5 weeks after last injection; for Sperm concentration: epididymal sperm. How it is done:
In order to recover the motile epididymal spermatozoa, the two caudal epididymides were placed in M2 medium (Sigma), minced with fine scissors and incubated at 37° C. in an atmosphere of 95% air and 5% CO2 for 15 minutes prior to careful removal of all medium. Samples were then diluted to a final volume of 1 ml in M2. The concentration of sperm cells in the medium was then evaluated using a hemocytometer, and the samples were frozen at −80° C.
(§2) Ten mice were injected intraperitoneally (ip) with 200 mg/kg of cyclophosphamide (Cy) once a week for a period of 5 weeks (Cy group).
(§3) Another ten mice (Cy+AS101 group) were co-treated with Cy as described for the Cy group and with i.p. injections of AS101 at a dosage of 10 μg/mouse every other day, starting 1 week before the first Cy injection and continuing during the 5 weeks of Cy treatment.
(§4) An additional group of ten mice were injected with PBS only (PBS group), and another ten mice were treated with i.p. injections of AS101 at a dosage of 10 μg/mouse every other day (AS101 group), as described for the Cy+AS101 group. The animals from all groups were sacrificed 5 weeks after the last injection by cervical dislocation, and body weights were determined; thereafter, epididymides and testes were quickly dissected out, weighed and fixed.
Body weight, testes weight, testes weight normalized to body weight, epididymis weight, epididymis weight normalized to body weight, and sperm concentration were determined for the mice of each of the 4 treatment groups.

Data set [3] has as its system Balb/c male mice. It counts as in vivo. As to conditions: Cy 200 mg/kg ip weekly for 5 weeks, AS101 10 μg/mouse ip every other day; for testicular histology (seminiferous tubules, cross sections): FIGS. 7A-7D. How it is done:
(§5) The removed testes were pierced with a needle and fixed in Bouin's fixative. After 24 hours, testes were washed three times and maintained in 70% ethanol. Samples were then embedded in paraffin and sectioned. Tissue sections (5 μm) were then stained using hematoxylin/eosin and examined randomly under a light microscope (AX70, Olympus, Tokyo, Japan) under ×100 magnification.
as §2, §3, §4

Data set [4] relates to phosphorylated Akt (pAkt). It counts as in vivo, mice. As to conditions: relative to the PBS group; testes homogenate, densitometry; FIGS. 12A-B. How it is done:
(§6) Frozen testes were homogenized in 1 ml of RIPA lysis buffer containing protease inhibitor cocktail and phosphatase inhibitor cocktail II. The tissue was then pulverized with a Dounce homogenizer and the homogenate subjected to centrifugation at 14,000 g for 15 minutes. The supernatant was collected and used for protein determination using Bradford reagent. Tissue samples were denatured in reducing buffer (62 mM Tris [pH 6.8], 10% glycerol, 2% sodium dodecyl sulfate [SDS], 5% f3-mercaptoethanol and 0.003% bromophenol blue) and separated by electrophoresis on an SDS (12%) polyacrylamide gel at 35 mA. The separated proteins were transferred onto a nitrocellulose membrane using the transfer buffer (39 mM glycine, 48 mM Tris [pH 8.3] and 20% methanol) at 20 V at 4° C. overnight. The membranes were stained with Ponceau S (0.005% in 1% acetic acid) to confirm equal amounts of protein, and blocked with 5% non-fat dry milk in Tris buffered saline with 0.1% TWEEN (TBS-T) for 1 hour at room temperature, and washed three times for 10 minutes each time in TBS-T. The following primary rabbit monoclonal antibodies were used: anti-human phospho-Akt1/2/3, anti-human GSK-3β and anti-human phospho-GSK-3β. Mouse antibody against chicken α-tubulin was used in order to confirm that the protein load was similar in all lanes. Membranes were incubated with the appropriate diluted antibody overnight at 4° C. After being washed three times for 10 minutes each time in TBS-T, the membranes were incubated for 1 hour at room temperature with peroxidase-conjugated goat anti-rabbit or goat anti-mouse IgG antibody. After washing, the membranes were analyzed by an enhanced chemiluminescence system according to the manufacturer's protocol (Pierce). Densitometry was conducted in order to quantify differences in band intensity using the Image J image-processing program (NIH, Bethesda, Md., USA). Results were normalized by comparison to the values in the PBS control group in each membrane.
(§7) Phosphorylation of Akt and GSK-3β was determined using gel electrophoresis and Western blotting, as described in the Materials and Methods section.

Data set [5] concerns phosphorylated GSK-3β (pGSK-3β). It counts as in vivo, mice. As to conditions: of the PBS group; testes homogenate, densitometry; FIGS. 13A-B. The method, then: as §6, §7
Another data set deals with mice. As to conditions: cited from earlier work.
A further data set relates to cancer patients. As to conditions: AS101 in combination with chemotherapy; cited from earlier work.
Data set [6] relates to tumor models in mice and humans. As to conditions: cited from earlier work.
For data set [7], the system named is Balb/c male mice. Put plainly: Histological evaluation of testicular damage (procarbazine). It counts as in vivo. As to conditions: three weekly injections of 200 mg/kg PCB; 5 mice per group; FIGS. 2A-2C. How it is done: as §5, §1
(§8) Each group contained 5 mice.

For data set [8], the system named is Balb/c male mice. Kind of data set: Evaluation of male fertility (procarbazine). As to conditions: females mated with treated males, PCB single dose 200 mg/kg. In kind it is in vivo. The method, then: (§9) Fertility assays were performed on the “chemotherapy only” group, “chemotherapy+AS101” group, and control (PBS) group. Each male was placed with three young virgin females, aged 6 weeks. These females were examined daily for vaginal plugs. Once mating was documented, females were separated, and the pregnancies allowed to progress. […] The number of pregnant females and litter size was noted.
Each group contained 5 male mice.

For a further data set, the system named is testicular cells. Kind of data set: Analysis of testicular damage by DNA flow cytometry (procarbazine). It counts as in vivo. As to conditions: PCB single dose 200 mg/kg; propidium iodide flow cytometry; 5 mice per group; FIG. 6. How it is done: Quantification of DNA content in testicular cell populations by propidium iodide staining followed by flow cytometry is an objective, rapid, and robust method for the analysis spermatogenic damage. The method provides quantitative values for evaluating the changes in the proportion in the number of 1N (mature and immature haploid), 2N (diploid), and 4N (tetraploid) cells in the testis. The method was performed as previously described (Malkov at al., 1998). Briefly, testes were dissected, decapsulated, and the contents of the testes were transferred into a tube containing 5 ml ice-cold separation medium. Then, a collagenase solution was added and incubation was carried out for 5 minutes at 37° C. under vigorous shaking. The seminiferous cords were allowed to sediment to the bottom of the tube while being incubated on ice. The seminiferous cords were washed twice in 10 ml separation medium, re-suspended in separation medium containing 2.5 mg/ml trypsin and 1U/ml DNase I, incubated for 2 minutes at 37° C., and transferred to ice. Using a Pasteur pipette, the seminiferous cords was disintegrated into single cells and were then filtered through a […] nylon mesh, washed twice with separation medium (centrifugation at 200-300 g), and counted. For FACS analysis, testicular cells were brought to a concentration of 2-3×10^6 cells/ml in separation medium and diluted 1:1 with propidium iodide solution (10 mM Tris pH 8, 1 mM NaCl, 0.1% Nonidet P-40, 0.7 mg/ml Rnase A, and 0.05 mg/ml propidium iodide). Cells were analyzed by a Becton-Dickinson (San Francisco, Calif.) FACSort instrument, equipped with an argon laser, within 2 hours from staining. Excitation was at 488 nm and emission at 585 nm. The parameters measured for each cell were forward scatter (FSC-H), side scatter (SSC-H), and total fluorescence emitted from the cell (FL2-A).
as §8
(In general: Flow cytometry measures light scatter and fluorescence of single cells or particles in a stream.)

The subject of a further data set is sperm nuclear DNA. It counts as in vivo, mice. As to conditions: Cy 200 mg/kg ip weekly for 5 weeks; AS101 10 μg/mouse ip every other day; FIG. 9. How it is done: as §2, §3, §4
The test system of data set [9] is Balb/c male mice. It counts as in vivo. As to conditions: females mated with treated males, Cy 200 mg/kg ip weekly for 5 weeks. The method, then: as §9, §2, §3, §4

As for `Cl[TeH]1(Cl)(Cl)OCCO1.N` [AS101, ammonium trichloro(dioxyethylene-O,O′)tellurate], in the data set with Balb/c male mice [1] (no PCB), the “effect of AS101 alone on testicular weight” value is reported as “no significant effect”. In the data set on Balb/c male mice [2], the Body weight worked out at 26.2 ± 1.0 gram, the Epididymis weight was determined as 34.2 ± 4.2 mg, the “Epididymis weight (normalized to body weight)” value is recorded as 1.3 ± 0.1 mg/gram body weight and the Testes weight was determined as 105.7 ± 14.7 mg. In the data set with Balb/c male mice [2], the “Testes weight (normalized to body weight)” value came out at 4.3 ± 0.3 mg/gram body weight and the Sperm concentration is 22.5 ± 3.8 10^6 cells/ml. In addition, the “testicular histology (seminiferous tubules, cross sections)” value with Balb/c male mice [3] is “normal cellular content; also recorded: no effect on testicular histology”. For the same compound, the “average level of phosphorylated Akt (pAkt)” value in data set [4] is given as 175.3±28.4%. Moreover, in data set [5], the “level of phosphorylated GSK-3β (pGSK-3β)” value turned out to be 130.3±16.9%. Besides, the “protection from hematopoietic damage” value with mice (lethal and sublethal doses of chemotherapeutic drugs, including cyclophosphamide) was “protect mice from hematopoietic damage”. In the data set on mice (mice treated with various cytotoxic drugs or radiation), the survival of mice entry is “increase the survival of mice”. For the same compound, the “severity of neutropenia, thrombocytopenia and alopecia that accompany chemotherapy” value in the data set on cancer patients was “significant reduction in the severity of neutropenia, thrombocytopenia, and alopecia”. Moreover, the “combination effect with Cy” value in [6] (treatment of tumor-bearing mice) is given as “synergistic effect with Cy”. The anti-tumoral effect entry in data set [6] (variety of tumor models in mice and humans) is recorded as “clear anti-tumoral effect”.
`CNNCc1ccc(C(=O)NC(C)C)cc1` [PCB, Procarbazine] displayed an average testicular weight in the data set with Balb/c male mice [1] (PCB single dose 200 mg/kg, normalized to mouse weight, 10 mice per group) of 1.9±0.2 mg per grams body weight. In the data set with Balb/c male mice [7], the “testicular histology (hematoxylin/eosin sections)” value is “empty and atrophic seminiferous tubules”. In addition, the litter size with Balb/c male mice [8] (5 male mice per group, FIG. 4) was 1.4±2.9. Further, the “percentage of impregnated females” value with Balb/c male mice [8] (FIG. 5) is listed as 20%. In the data set with testicular cells, the “percentage of cells with 1N (haploid) DNA in the testes” value is recorded as 24.2±4.0%, the “percentage of cells with 2N (diploid) DNA in the testes” value is listed as 54.9±4.2% and the “percentage of cells with 4N (tetraploid) DNA in the testes” value is 4.7±0.4%.
On to `O=P1(N(CCCl)CCCl)NCCCO1` (stereo not drawn) [Cy, cyclophosphamide], for which, in the data set on Balb/c male mice [2], the deaths entry is “no deaths occurred”, the Body weight is listed as 22.8 ± 2.1 gram, the Epididymis weight came to 25.1 ± 2.9 mg and the “Epididymis weight (normalized to body weight)” value was determined as 1.1 ± 0.1 mg/gram body weight. Besides, in the data set on Balb/c male mice [2], the Testes weight was determined as 46.3 ± 8.7 mg, the “Testes weight (normalized to body weight)” value was found to be 1.98 ± 0.16 mg/gram body weight and the Sperm concentration is 8.7 ± 1.6* 10^6 cells/ml. In addition, in the data set on Balb/c male mice [3] (FIG. 8), the “average percentage of damaged seminiferous tubules” value worked out at 76.0±10.8%. Besides, the “testicular histology (seminiferous tubules, cross sections)” value in the data set with Balb/c male mice [3] was “empty and atrophic seminiferous tubules”. Besides, the “percentage of sperm cells with abnormal chromatin structure (% DFI)” value with sperm nuclear DNA stood at 44.7±1.0%. The “percentage of impregnated females” value with Balb/c male mice [9] (FIG. 10) was determined as 20.0±4.2%. In addition, the “litter size of females which did achieve pregnancy” value in the data set on Balb/c male mice [9] (FIG. 11) amounted to 4.3±1.4. Besides, in data set [4], the “average level of phosphorylated Akt (pAkt)” value amounted to 55.3±25.6%. The “level of phosphorylated GSK-3β (pGSK-3β)” value in data set [5] was found to be 36.4±12.5%.
